Assay results reported in US10189809B2, “SGC stimulators” (Ironwood Pharmaceuticals, Inc., priority 2010, dated 2019).

Columns and labels:
[1] = target: soluble guanylate cyclase (sGC) (Homo sapiens (Human), UniProt Q02108+Q02153); assay: sGC-HEK-cGMP assay run with SNP incubation (HEK WC assay); format: cell-based; details: for Emax at 10 µM: read-out: HEK WC Assay (% Emax at 10 μM/with 10 uM SNP); for Emax at 30 µM: read-out: HEK WC Assay (% Emax at 30 μM/with 10 uM SNP)
Procedure, shortened: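 HEK293 cells with endogenous sGC were pretreated with 0.5 mM IBMX for 15 min at 37 °C, then exposed to test compound plus sodium nitroprusside for 10 min at 37 °C.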

Thoracic aortic rings = assay: Alternative thoracic aortic rings assay (Example 19b; resting tension as 100% inhibition); set-up: species or system rat; details: Table 10A; for Percent Relaxation at 1 μM: printed as number or words instead of code; for inhibition at 3 µM / inhibition at 10 µM / inhibition at 1 µM / EC50: Rattus norvegicus; for inhibition at 3 µM: read-out: Percent Relaxation at 3 μM; for inhibition at 10 µM: read-out: Percent Relaxation at 10 μM; for inhibition at 1 µM: read-out: Percent Relaxation at 1 μM; for EC50: read-out: Aortic Ring EC50
Procedure, shortened: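 Aortic rings (~2 mm) from male Sprague-Dawley rats (275-299 g) held at 1.0 g resting tension in Krebs-Henseleit at 37 °C under 95% O2/5% CO2, then precontracted with 100 ng/mL phenylephrine. Compounds in DMSO added cumulatively; relaxation recorded by force transducer and EC50 taken from concentration-response curves.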

[2] = target: T1, Human soluble guanylate cyclase enzyme (hsGC) (Homo sapiens (Human), UniProt Q02108+Q02153); assay: Purified human sGC enzyme activity assay; format: biochemical; details: without the addition of SNP; for sGC Enzyme (fold increase at 30 μM): 30 μM compound
Procedure, shortened: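 Purified human sGC (5 ng) incubated 30 min at 37° C with compound at 10 or 30 μM final in pH 8.0 Tris with 300 μM GTP, 2 mM MgCl2, 2 mM DTT and 1 mM IBMX, then stopped with cold methanol. cGMP quantified against a standard curve. Specific activity (nmol cGMP/mg sGC/min) expressed as fold-change over DMSO control.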

[3] = target: T1, Human soluble guanylate cyclase enzyme (hsGC); assay: Purified human sGC enzyme synergy assay in the presence of 1 μM sodium nitroprusside (SNP); format: biochemical; details: 30 μM compound, with the addition of SNP
Procedure, shortened: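 Purified human sGC (5 ng) incubated 30 min at 37 °C with compounds at 10 or 30 μM, 1 μM sodium nitroprusside, 300 μM GTP and 1 mM IBMX in Tris pH 8.0 with MgCl2/DTT. cGMP quantified against a standard curve, and specific activity expressed as fold-change over DMSO control.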

soluble guanylate cyclase (sGC), sequence (Q02153 whole entry): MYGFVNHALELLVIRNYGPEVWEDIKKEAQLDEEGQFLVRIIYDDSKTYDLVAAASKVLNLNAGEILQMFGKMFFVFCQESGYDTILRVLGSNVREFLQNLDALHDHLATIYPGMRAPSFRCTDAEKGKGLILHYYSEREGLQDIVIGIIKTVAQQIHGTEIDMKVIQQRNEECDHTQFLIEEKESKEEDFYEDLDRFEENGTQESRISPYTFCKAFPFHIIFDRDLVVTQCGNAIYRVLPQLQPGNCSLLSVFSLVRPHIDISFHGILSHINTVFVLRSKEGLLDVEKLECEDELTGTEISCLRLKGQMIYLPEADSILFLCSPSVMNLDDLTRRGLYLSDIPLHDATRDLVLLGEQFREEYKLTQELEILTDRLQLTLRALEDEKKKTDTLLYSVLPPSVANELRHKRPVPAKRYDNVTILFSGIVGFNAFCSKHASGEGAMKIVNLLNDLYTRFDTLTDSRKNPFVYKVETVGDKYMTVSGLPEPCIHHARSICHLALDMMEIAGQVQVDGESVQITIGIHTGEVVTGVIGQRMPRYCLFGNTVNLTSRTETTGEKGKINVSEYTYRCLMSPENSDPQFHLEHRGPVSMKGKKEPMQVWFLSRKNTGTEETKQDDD
soluble guanylate cyclase (sGC), sequence (Q02108 whole entry): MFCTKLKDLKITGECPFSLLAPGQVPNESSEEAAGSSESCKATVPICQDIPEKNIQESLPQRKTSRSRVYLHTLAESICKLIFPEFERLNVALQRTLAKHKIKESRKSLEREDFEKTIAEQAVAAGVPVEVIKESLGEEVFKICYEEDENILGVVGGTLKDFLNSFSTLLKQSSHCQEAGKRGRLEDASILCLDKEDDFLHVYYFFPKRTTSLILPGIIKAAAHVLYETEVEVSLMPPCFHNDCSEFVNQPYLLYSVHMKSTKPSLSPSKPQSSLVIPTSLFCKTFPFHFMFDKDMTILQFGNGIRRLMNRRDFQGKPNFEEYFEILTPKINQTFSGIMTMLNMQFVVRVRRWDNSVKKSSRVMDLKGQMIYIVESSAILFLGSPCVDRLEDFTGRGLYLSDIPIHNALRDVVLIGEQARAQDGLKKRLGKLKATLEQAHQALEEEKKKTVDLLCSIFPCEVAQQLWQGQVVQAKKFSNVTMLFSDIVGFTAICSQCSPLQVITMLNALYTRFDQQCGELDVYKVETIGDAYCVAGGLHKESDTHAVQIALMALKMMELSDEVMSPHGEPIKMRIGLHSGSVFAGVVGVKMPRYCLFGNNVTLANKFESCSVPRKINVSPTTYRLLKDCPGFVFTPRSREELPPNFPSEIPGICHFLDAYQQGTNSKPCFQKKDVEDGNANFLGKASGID
T1 sequence (Q02153 whole entry): as the sequence (Q02153 whole entry) above
T1 sequence (Q02108 whole entry): as the sequence (Q02108 whole entry) above

SMILES	Emax at 10 µM [1] [%]	Emax at 30 µM [1] [%]	Percent Relaxation at 1 μM (Thoracic aortic rings)	inhibition at 3 µM (Thoracic aortic rings; 3 μM) [%]	inhibition at 10 µM (Thoracic aortic rings) [%]	sGC Enzyme (fold increase at 30 μM) [2]	sGC Enzyme (fold increase at 30 μM with SNP) [3]	inhibition at 1 µM (Thoracic aortic rings) [%]	EC50 (Thoracic aortic rings) [µM]	sGC Enzyme (fold increase at 10 μM) ([2]; 10 μM compound)	Percent Relaxation at 3 μM (Thoracic aortic rings; 3 μM, printed as words instead of code)
COC(=O)Nc1c(N)nc(-c2cc(-c3ccsc3)n(Cc3ccccc3F)n2)nc1N [Compound I-71]	10 to 20	10 to 20	No relaxation	10 to 20	60 to 80	C (C = 5 to <10 fold increase)	D (D = 10 to <30 fold increase)	–	–	–	–
COC(=O)N(C)c1c(N)nc(-c2cc(-c3ccsc3)n(Cc3ccccc3F)n2)nc1N [Compound I-72]	20 to 40	20 to 40	3.1	20 to 40	60 to 80	D (D = 10 to <30 fold increase)	D (D = 10 to <30 fold increase)	–	–	–	–
Fc1ccccc1Cn1nc(-c2ncccn2)cc1-c1ccccn1 [Compound I-75]	10 to 20	20 to 40	–	20 to 40	60 to 80	B (B = 2 to <5 fold increase)	D (D = 10 to <30 fold increase)	10 to 20	2 to 4	A (A = no increase to <2 fold increase)	–
Nc1ccnc(-c2cc(-c3ccccc3)n(Cc3ccccc3F)n2)n1 [Compound I-82]	10 to 20	10 to 20	–	20 to 40	80 to 100	C (C = 5 to <10 fold increase)	C (C = 5 to <10 fold increase)	10 to 20	4 to 8	–	–
COC(=O)Nc1c(N)nc(-c2cc(-c3ccccc3)n(Cc3ccccc3F)n2)nc1N [Compound I-83]	–	–	–	20 to 40	60 to 80	D (D = 10 to <30 fold increase)	C (C = 5 to <10 fold increase)	10 to 20	4 to 8	–	–
COC(=O)N(C)c1c(N)nc(-c2cc(-c3ccccc3)n(Cc3ccccc3F)n2)nc1N [Compound I-84]	–	–	no relaxation	–	20 to 40	C (C = 5 to <10 fold increase)	B (B = 2 to <5 fold increase)	–	8 to 12	–	no relaxation
CC(=O)Nc1c(N)nc(-c2cc(-c3nccs3)n(Cc3ccccc3F)n2)nc1N [Compound I-94]	0 to 10	0 to 10	–	–	–	A (A = no increase to <2 fold increase)	B (B = 2 to <5 fold increase)	–	–	–	–
Cc1nc2c(N)nc(-c3cc(-c4nccs4)n(Cc4ccccc4F)n3)nc2[nH]1 [Compound I-95]	10 to 20	20 to 40	–	–	–	A (A = no increase to <2 fold increase)	C (C = 5 to <10 fold increase)	–	–	–	–
Cn1c(=O)[nH]c2nc(-c3cc(-c4nccs4)n(Cc4ccccc4F)n3)nc(N)c21 [Compound I-96]	20 to 40	20 to 40	–	–	–	B (B = 2 to <5 fold increase)	C (C = 5 to <10 fold increase)	–	–	–	–
Cn1c(=O)[nH]c2nc(-c3cc(-c4ncco4)n(Cc4ccccc4F)n3)nc(N)c21 [Compound I-101, 6-amino-2-(1-(2-fluorobenzyl)-5-(oxazol-2-yl)-1H-pyrazol-3-yl)-7-methyl-7H-purin-8(9H)-one]	60 to 80	20 to 40	–	–	–	B (B = 2 to <5 fold increase)	D (D = 10 to <30 fold increase)	–	–	–	–
Nc1cc(N)nc(-c2cc(-c3ccon3)n(Cc3ccccc3F)n2)n1 [Compound I-103, 2-(1-(2-fluorobenzyl)-5-(isoxazol-3-yl)-1H-pyrazol-3-yl)pyrimidine-4,6-diamine]	20 to 40	20 to 40	–	–	–	A (A = no increase to <2 fold increase)	B (B = 2 to <5 fold increase)	–	–	–	–
Nc1nc(-c2cc(-c3ccon3)n(Cc3ccccc3F)n2)ncc1C1CC1 [Compound I-104]	40 to 60	> 120	–	–	–	B (B = 2 to <5 fold increase)	C (C = 5 to <10 fold increase)	–	–	–	–
CC(C)(C)OC(=O)Nc1cnc(-c2cc(-c3ccon3)n(Cc3ccccc3F)n2)nc1N [Compound I-106]	–	–	–	60 to 80	100 to 120	D (D = 10 to <30 fold increase)	D (D = 10 to <30 fold increase)	20 to 40	< 2	–	–
Cl.Nc1cnc(-c2cc(-c3ccon3)n(Cc3ccccc3F)n2)nc1N [Compound I-107, 2-(1-(2-fluorobenzyl)-5-(isoxazol-3-yl)-1H-pyrazol-3-yl)pyrimidine-4,5-diamine hydrochloride]	60 to 80	0 to 10	–	–	–	B (B = 2 to <5 fold increase)	C (C = 5 to <10 fold increase)	–	–	–	–
Nc1nc(-c2cc(-c3ccon3)n(Cc3ccccc3F)n2)ncc1-c1nccs1 [Compound I-108]	20 to 40	20 to 40	–	–	–	A (A = no increase to <2 fold increase)	B (B = 2 to <5 fold increase)	–	–	–	–
Cc1cc(N)nc(-c2cc(-c3ccon3)n(Cc3ccccc3F)n2)n1 [Compound I-111]	60 to 80	40 to 60	–	–	–	B (B = 2 to <5 fold increase)	C (C = 5 to <10 fold increase)	–	–	–	–
Nc1nc(-c2cc(-c3ccon3)n(Cc3ccccc3F)n2)ncc1C(F)(F)F [Compound I-113]	20 to 40	40 to 60	–	–	–	A (A = no increase to <2 fold increase)	C (C = 5 to <10 fold increase)	–	–	–	–
CC(C)(C)c1cnc(-c2cc(-c3ccon3)n(Cc3ccccc3F)n2)nc1N [Compound I-114]	40 to 60	40 to 60	–	–	–	B (B = 2 to <5 fold increase)	D (D = 10 to <30 fold increase)	–	–	–	–
Nc1cc(-c2cccnc2)nc(-c2cc(-c3ccon3)n(Cc3ccccc3F)n2)n1 [Compound I-116]	20 to 40	20 to 40	–	–	–	B (B = 2 to <5 fold increase)	C (C = 5 to <10 fold increase)	–	–	–	–
CS(=O)(=O)c1cnc(-c2cc(-c3ccon3)n(Cc3ccccc3F)n2)nc1N [Compound I-120]	0 to 10	0 to 10	–	–	–	A (A = no increase to <2 fold increase)	C (C = 5 to <10 fold increase)	–	–	–	–
Nc1nc(-c2cc(-c3ccon3)n(Cc3ccccc3F)n2)ncc1-c1ccccc1 [Compound I-122]	20 to 40	60 to 80	–	–	–	C (C = 5 to <10 fold increase)	D (D = 10 to <30 fold increase)	–	–	–	–
Nc1nc(-c2cc(-c3ccon3)n(Cc3ccccc3F)n2)ncc1-c1cccnc1 [Compound I-127]	60 to 80	60 to 80	–	–	–	C (C = 5 to <10 fold increase)	D (D = 10 to <30 fold increase)	–	–	–	–
Nc1nc(-c2cc(-c3ccon3)n(Cc3ccccc3F)n2)ncc1-c1ccccn1 [Compound I-128]	60 to 80	40 to 60	–	–	–	B (B = 2 to <5 fold increase)	C (C = 5 to <10 fold increase)	–	–	–	–
CCOC(=O)c1cnc(-c2cc(-c3ccon3)n(Cc3ccccc3F)n2)nc1N [Compound I-131]	60 to 80	40 to 60	–	–	–	B (B = 2 to <5 fold increase)	D (D = 10 to <30 fold increase)	–	–	–	–
Nc1nc(-c2cc(-c3ccon3)n(Cc3ccccc3F)n2)ncc1C(=O)O [Compound I-132]	40 to 60	20 to 40	–	–	–	B (B = 2 to <5 fold increase)	C (C = 5 to <10 fold increase)	–	–	–	–
CC(C)(O)c1cnc(-c2cc(-c3ccon3)n(Cc3ccccc3F)n2)nc1O [Compound I-133]	20 to 40	40 to 60	–	–	–	A (A = no increase to <2 fold increase)	B (B = 2 to <5 fold increase)	–	–	–	–
